Values quoted from earlier work in EP3085364A1, “PHARMACEUTICAL COMBINED PREPARATION CONTAINING HMG-COA REDUCTASE INHIBITOR AND CHOLESTEROL ABSORPTION INHIBITOR” (Alvogen Korea Co., Ltd., priority 2013, dated 2015).
Where two headings read alike, the source gives them in different places.

Tests used:
[1] = room temperature

| Compound | solubility in organic solvents (N,N-dimethylformamide, acetone, or acetonitrile) | solubility in water | solubility in organic solvents (ethanol, methanol, or acetone) | stability [1] |
| --- | --- | --- | --- | --- |
| CC(C)c1nc(N(C)S(C)(=O)=O)nc(-c2ccc(F)cc2)c1/C=C/[C@@H](O)C[C@@H](O)CC(=O)O [Rosuvastatin calcium, (E)-7-[4-(4-fluorophenyl)-6-isopropyl-2-[methyl(methylsulfonyl)amino]pyrimidin-5-yl]-(3R,5S)-3,5-dihydroxyhept-6-enic acid] | soluble | sparingly soluble |  |  |
| O=C1[C@H](CC[C@H](O)c2ccc(F)cc2)[C@@H](c2ccc(O)cc2)N1c1ccc(F)cc1 [Ezetimibe, 1-(4-fluorophenyl)-(3R)-[3-(4-fluorophenyl)-(3S)-hydroxypropyl]-(4S)-(4-hydroxyphenyl)-2-azetidinone] |  | practically insoluble | freely to very soluble | stable |
